The subject of test [1] is DU-145. Put plainly: Cytotoxicity against human DU145 cells after 72 hrs by XTT assay. Format: functional, cell-based. The note with it: DU-145, 72 h. On the technique in general: Formazan colour is commonly taken as a measure of viable cells.
For test [2], the system named is HepG2. Briefly: Cytotoxicity against human HepG2 cells after 72 hrs by XTT assay. The following applies: HepG2, 72 h. It is filed as functional, cell-based.

The text below walks through data of ChEMBL document CHEMBL3045567, “Heterocycles 23: Synthesis, characterization and anticancer activity of new hydrazinoselenazole derivatives” (Med Chem Res, 2013).

Where only a bound is given, the exact number is not on record here.

In general, IC50 refers to the point on the concentration scale where inhibition reaches its midpoint. The low end stands for greater potency, the high end for weaker potency.

`CC(=O)N(C(=O)c1ccccc1)N(C(C)=O)c1nc(-c2ccccc2)c[se]1`: the IC50 in test [1] and in test [2] was greater than 58.6 µM each time.
With `CC(=O)N(C(=O)c1ccc(Cl)cc1)N(C(C)=O)c1nc(C)c[se]1`, the IC50 in test [1] and in test [2] was greater than 62.7 µM throughout.
As for `CC(=O)N(C(=O)c1ccc(Cl)cc1)N(C(C)=O)c1nc(-c2ccccc2)c[se]1`, the IC50 in test [1] and in test [2] was greater than 54.3 µM in each case.
For `CC(=O)N(/N=C/c1ccc(Cl)cc1)c1nc(CCl)c[se]1`, the IC50 in test [1] is 64.7 µM; in test [2], greater than 66.7 µM.
For the compound `CC(=O)N(/N=C/c1ccc(Cl)cc1)c1nc(-c2ccccc2)c[se]1`, the IC50 in test [1] and in test [2] was greater than 62.1 µM throughout.
On to `CCOC(=O)c1[se]c(N(/N=C/c2ccc(Cl)cc2)C(C)=O)nc1C`, for which the results for the IC50 in test [1] and in test [2] were greater than 60.6 µM and 55.1 µM, respectively.
For `COc1ccc(/C=N/N(C(C)=O)c2nc(C)c[se]2)cc1` the same measures were greater than 74.4 µM and greater than 74.4 µM.
Turning to `COc1ccc(/C=N/N(C(C)=O)c2nc(-c3ccccc3)c[se]2)cc1`, the IC50 in test [1] and in test [2] was greater than 62.8 µM throughout.
Regarding `CC(=O)N(/N=C/c1csc(-c2ccccc2)n1)c1nc(CCl)c[se]1`, the results for the IC50 in test [1] and in test [2] were 19.6 µM and 19.3 µM, respectively.
As for `CC(=O)c1[se]c(N(/N=C/c2csc(-c3ccccc3)n2)C(C)=O)nc1C`, the IC50 came out at 31.3 µM in test [1] and 29.4 µM in test [2].
Consider `NC(=[Se])NNC(=O)c1ccc(Cl)cc1`, for which the IC50 in test [1] came to 7.59 µM; in test [2], 10.7 µM.
With `Cc1c[se]c(NNC(=O)c2ccccc2)n1`, the IC50 in test [1] and in test [2] was greater than 89.2 µM throughout.
Take `O=C(NNc1nc(-c2ccccc2)c[se]1)c1ccccc1`: the IC50 in test [1] and in test [2] was greater than 73 µM throughout.
Regarding `Cc1c[se]c(NNC(=O)c2ccc(Cl)cc2)n1`, the IC50 in test [1] and in test [2] was greater than 79.5 µM each time.
With `O=C(NNc1nc(-c2ccccc2)c[se]1)c1ccc(Cl)cc1`, the IC50 was 65.1 µM in test [1] and 62.9 µM in test [2].
In the same order, the values of `CC(=O)N(C(=O)c1ccccc1)N(C(C)=O)c1nc(C)c[se]1` are greater than 68.6 µM and greater than 68.6 µM.
Regarding `NC(=[Se])N/N=C/c1ccc(Cl)cc1`, the IC50 in test [1] was 8.63 µM; in test [2] it was 13 µM.
For `COc1ccc(/C=N/NC(N)=[Se])cc1` the same measures were 30.3 µM and 11.3 µM.
In the same order, the values of `NC(=[Se])N/N=C/c1csc(-c2ccccc2)n1` are 6.14 µM and 9.18 µM.
For `Cc1c[se]c(N/N=C/c2ccc(Cl)cc2)n1` the same measures were 49.4 µM and 56.5 µM.
`ClCc1c[se]c(N/N=C/c2ccc(Cl)cc2)n1`: the IC50 in test [1] and in test [2] was greater than 75.1 µM each time.
Regarding `Clc1ccc(/C=N/Nc2nc(-c3ccccc3)c[se]2)cc1`, the IC50 was 54.2 µM in test [1] and 42.5 µM in test [2].
Regarding `CCOC(=O)c1[se]c(N/N=C/c2ccc(Cl)cc2)nc1C`, the IC50 in test [1] worked out at 47.7 µM; in test [2] it was 52.8 µM.
With `COc1ccc(/C=N/Nc2nc(C)c[se]2)cc1`, the figures for the concentration for half-maximal inhibition (IC50) in test [1] and in test [2] were greater than 85 µM and 83.2 µM, respectively.
In the same order, the values of `COc1ccc(/C=N/Nc2nc(-c3ccccc3)c[se]2)cc1` are 50.9 µM and 50.5 µM.
`ClCc1c[se]c(N/N=C/c2csc(-c3ccccc3)n2)n1`: the IC50 came to 16.4 µM in test [1] and 18.8 µM in test [2].
Regarding `CC(=O)c1[se]c(N/N=C/c2csc(-c3ccccc3)n2)nc1C`, the results for the IC50 in test [1] and in test [2] were 49.9 µM and 61.3 µM, respectively.
In the case of `CC(=O)N(/N=C/c1ccc(Cl)cc1)c1nc(C)c[se]1`, the figures for the IC50 in test [1] and in test [2] were 60.6 µM and 59.2 µM, respectively.
Consider `NC(=[Se])NNC(=O)c1ccccc1` [BENZOYL-SELENOSEMICARBAZIDE], for which the results for the IC50 in test [1] and in test [2] were 35.1 µM and 34.8 µM, respectively.
Take `NC(=[Se])N/N=C/c1ccccc1` [BENZYLIDEN-SELENOSEMICARBAZIDE]: the IC50 in test [1] came out at 40.8 µM; in test [2] it was 39.1 µM.
In the case of `COc1cccc2c1C(=O)c1c(O)c3c(c(O)c1C2=O)C[C@@](O)(C(=O)CO)C[C@@H]3O[C@H]1C[C@H](N)[C@H](O)[C@H](C)O1` [DOXORUBICIN], the values for the IC50 in test [1] and in test [2] were 3.27 µM and 4.89 µM, respectively.
